Read-outs that look alike come from different tables or passages of the source.
Experiments:
rat [1] = experiment: animal or person; format: in vivo
Protocol: According to Table II and with reference to the method described by A. HERZ (Naunyn-Schmiedeberg's Arch. Pharmakol., 242, 414, 1962) with rats by electrical stimulation of the root of the tail by means of continuously increasing the current a threshold of pain was determined which threshold was characterized in that the animals commenced to squeak in synchronism with the stimulation. When maintaining the selected test conditions these threshold values indicated as percent variations against the initial values prior to the treatment remained practically constant over a period of several hours in a test with control animals. Since these values are furthermore also normally distributed it is possible to quantitatively determine analgetic effects by determining the number of animals whose threshold values exceed during a test run the range defined by the mean value plus twice the standard deviation.
To determine the mean effective dosage ED50) determinations of the threshold of pain were made in 30 minute intervals with groups of 12 female rats each, each rat having a body weight from 160 to 360 grams, and these determinations were made prior to and after the treatment with at least 3 doses of the test substances which were administered orally in a 2 % methyl-cellulose-mucic by means of a probe. […] In this manner, not only the intensity but also the duration of the effect were taken into consideration when determining the ED50 since the analgesia must be sustained for at least 90 minutes.

[2] = Acute oral toxicity in the mouse (LD50, 7-day observation); format: in vivo; details: in vivo, read-out: Mean lethal dosage (LD50)
mouse [3] = experiment: animal or person; details: for ED50: Mus musculus; for Hot plate: relative therapeutic index (Th.I.) / Writhing Test: relative therapeutic index (Th.I.) / Writhing Test: mean effective dosage (ED50) / Hot plate: mean effective dosage (ED50): mouse; for Writhing Test: mean effective dosage (ED50) / Hot plate: mean effective dosage (ED50): relative to effective substance; for Writhing Test: mean effective dosage (ED50): 30 min; for Hot plate: mean effective dosage (ED50): 60 min
Protocol: The mice were kept without food during a period of 18 hours prior to the commencement of the tests. The test substances were administered orally in a methyl-cellulose-mucic (slime) by means of a probe. The observation period for the toxicity tests was 7 days. […] The pre-medication periods were 60 minutes in the first test arrangements. […] The percentage of the non-reacting animals was used to compute the ED50. […] Since the reaction times of the control group animals were log-normally distributed an analgetic effect was assumed in the treated animals if the logarithm of the reaction time of an animal was above the mean value range plus twice the standard deviation of the control group animals.

rat [4] = format: in vivo
[5] = Acute oral toxicity in the rat (LD50); details: in vivo
mouse [6] = experiment: Acute oral toxicity in the mouse (LD50, 7-day observation); format: in vivo; details: Table I, relative to effective substance, 10080 min
[7] = Overall analgetic effect and compatability [sic]; details: in vivo
[8] = Table I, relative to effective substance
[9] = po, 0.5 h, read-out: Writhing Test: mean effective dosage (ED50)
[10] = po, 1 h, read-out: Hot plate: mean effective dosage (ED50)
[11] = Table I, oral, LD10/ED90, relative to aminophenazone = 1,00
[12] = Table IV, rat, oral, read-out: Mean effective dosage (ED50), electrical stimulation of root of the tail (HERZ)
[13] = po, Table II, rat, p.o., relative to effective substance, read-out: Mean effective dosage (ED50), analgetic effect on rats
[14] = Table IV, oral, LD10/ED90, relative to aminophenazone = 1.00

Row | Compound | ED50 (rat [1]; Rattus norvegicus, po, read-out: Mean effective dosage (ED50), analgetic effect on rats) | Relative effectivity, relative to aminophenazone = 1.00 (rat [1]; Table II, rat, p.o.) | LD50 at 168 h [2, 8] | ED50 (mouse [3]; [9]) | ED50 (mouse [3]; [10]) | Hot plate: relative therapeutic index (Th.I.) (mouse [3]; [11]) | Writhing Test: relative therapeutic index (Th.I.) (mouse [3]; [11]) | ED50 (rat [1]; [12]) | relative therapeutic index (rat [4]; in vivo, po) | LD50 [5] | LD50 at 168 h ([2]; Table III) | Mean lethal dosage (LD50) (mouse [6]) | Writhing Test: mean effective dosage (ED50) (mouse [3]; Table I, oral) | Hot plate: mean effective dosage (ED50) (mouse [3]; Table I, oral) | Hot plate: relative therapeutic index (Th.I.) (mouse [3]; in vivo, po) | Writhing Test: relative therapeutic index (Th.I.) (mouse [3]; in vivo, po) | ED50 (rat [1]; [13]) | relative therapeutic index (rat [4]; [14]) | analgetic activity (in words) [7]
1 | COc1ccc2c3c1O[C@H]1[C@@H](O)C=C[C@H]4[C@@H](C2)N(C)CC[C@@]341 [codeine phosphate] | 22 mg/kg | 10.50 | 265 mg/kg | 14 mg/kg | 115 mg/kg | 1,49 | 1,92 |  |  |  |  |  |  |  |  |  |  |  | 
2 | Cc1c(N(C)C)c(=O)n(-c2ccccc2)n1C [aminophenazone] |  | 1.00 |  | 50 mg/kg | 283 mg/kg | 1,00 | 1,00 | 229 mg/kg | 1.00 | 1350 mg/kg | 550 mg/kg | 550 mg/kg body weight | 50 mg/kg body weight | 283 mg/kg body weight | 1.00 | 1.00 |  |  | 
3 | CCOc1ccc(NC(C)=O)cc1 [phenacetine] |  | 1.86 |  | 107 mg/kg | 530 mg/kg | 1,71 | 0,66 |  |  |  | 1250 mg/kg | 1250 mg/kg body weight | 107 mg/kg body weight | 530 mg/kg body weight | 1.93 | 0.74 | 123 mg/kg |  | 
4 | C1CCc2c(n[nH]c2OCCN2CCOCC2)C1 [3-(β-morpholino-ethoxy)-4,5,6,7-tetrahydro-2H-indazole] |  |  |  | 94 mg/kg | 540 mg/kg |  |  | 143 mg/kg |  | 1600 mg/kg | 1720 mg/kg |  |  |  | 2.67 | 2.07 |  | 1.62 | 
5 | c1ccc2c(OCCCN3CCOCC3)n[nH]c2c1 [3-(γ-morpholino-propoxy)-1H-indazole] |  |  |  |  |  |  |  |  |  |  |  |  |  |  |  |  |  |  | Analgetically particularly active
6 | CC(=O)Oc1ccccc1C(=O)O [acetylsalicylate] |  | 0.67 |  | 107 mg/kg | 500 mg/kg | 1,67 | 0,80 | 340 mg/kg |  | 1400 mg/kg | 835 mg/kg | 835 mg/kg body weight | 107 mg/kg body weight | 500 mg/kg body weight | 1.88 | 0.91 |  | 0.28 | 
7 | Br.c1ccc2c(OCCN3CCOCC3)n[nH]c2c1 [3-(β-morpholino-ethoxy)-1H-indazole-hydrobromide] |  | 6.84 | 615 mg/kg | 46 mg/kg | 142 mg/kg | 3,53 | 1,30 |  |  |  |  |  |  |  |  |  | 34 mg/kg |  | Analgetically particularly active
8 | Br.C1CCc2c(n[nH]c2OCCN2CCOCC2)C1 [3-(β-morpholino-ethoxy)-4,5,6,7-tetrahydro-2H-indazole-hydrobromide] |  |  |  |  |  |  |  |  |  |  |  |  |  |  |  |  |  |  | Analgetically particularly active
9 | c1ccc2c(OCCN3CCOCC3)n[nH]c2c1 [3-(β-morpholino-ethoxy)-1H-indazole] |  |  |  |  |  |  |  |  |  |  |  |  |  |  |  |  |  |  | Analgetically particularly active

From patent US3981997A, “Analgesic compositions comprising 1H- or respectively 2H-indazolone-3 (β-morpholino-alkoxy) compounds” (Temmler Werke-Vereinigte Chemische Fabriken, priority 1970, dated 1976)
